Values quoted from earlier work as cited in patent publication US11160791B2, “Dexmedetomidine injection premix formulation in ready to use (RTU) bags” (Medefil, Inc., priority 2018, dated 2021).

Cc1cccc([C@H](C)c2cnc[nH]2)c1C [dexmedetomidine]
drug loss with a buffer (plastic containers, buffer system in the formulation, same prior patents): ~10%
dexmedetomidine loss when sodium chloride is used (plastic containers, even with buffers present, U.S. Pat. No. 9,649,296): at least 10%
loss of the dexmedetomidine from the liquid composition (plastic materials, U.S. Pat. Nos. 8,242,158, 8,648,106, 8,436,033, 8,338,470): up to 20%
